Source: article PMC9061999, “Application of the Adverse Outcome Pathway Concept to In Vitro Nephrotoxicity Assessment: Kidney Injury due to Receptor-Mediated Endocytosis and Lysosomal Overload as a Case Study” (Frontiers in Toxicology, 2022)

Tests used:
[1] = tested on: RPTEC/TERT1 cells; test: Cathepsin D immunofluorescence (KE2, disruption of lysosomes); format: cell-based, human
Protocol: For immunocytochemistry experiments, cells were seeded into 8-well chamber slides (Ibidi) at a density of 140 cells per µL in 300 µL growth medium and were allowed to grow for 48 h (NRK-52E) or 10 d (RPTEC/TERT1) respectively. For treatment, stock solutions (1,000 µM) of compounds dissolved in growth medium were freshly prepared and serial dilutions were made before exposure of cells for 24 h. After treatment, cells were washed twice with 150 µL PBS and fixed with 150 µL 4% paraformaldehyde in 1 x PBS for 10 min at room temperature. […]
After incubation with primary antibody, cells were washed three times for 15 min with 0.2% Tween in 1 x PBS (150 µL) on an orbital shaker. […] To preserve fluorescence 50–100 µL DAPI mounting medium (Vectashield®; Vectorlab, Biozol) was added to the cells and chamber slides were stored at 4°C in the dark until image acquisition.
Images were taken with a TCS SP5 II confocal microscope with an HCX PL APO lambda blue 63.0 × 1.40 OIL UV objective (Leica Microsystems, Wetzlar, GER) (n = 10 cells/treatment group). […] Before quantification, images were blinded and randomized. Quantification of fluorescence intensity was performed using NIH Image® software. […] The mean values of the pixel intensities were automatically calculated by the software and imported in Excel for further processing.

[2] = tested on: RPTEC/TERT1 and NRK-52E cells; test: In vitro key event assays (LAMP-1/2, cathepsin D, cell viability) compared across both cell models; format: cell-based, human and rat
Protocol: Cells were plated into 96-well tissue culture plates (10,000 cells per well) and were allowed to grow for 48 h (NRK-52E) respectively 10 d (RPTEC/TERT1) prior to 24 h treatment with model stressors. Stock solution for each compound (2000 µM) was prepared in growth medium and serial dilutions (1:1) were made before each experiment. At the end of the 24 h treatment, cell viability was measured using the CellTiter-Glo® assay (Promega). CellTiter-Glo® reagents and buffer were mixed under light-protected conditions and 100 µL CellTiter-Glo® solution was added directly to each well followed by 2 min incubation on an orbital shaker and 10 min incubation at room temperature in the dark to stabilize the luminescence signal. The suspension was mixed via pipetting and 50 µL were transferred into white 96-well plates (PerkinElmer Inc.). The luminescence signal was measured on a multiplate reader (Mithras LB 940; Berthold). Each assay was performed in three independent experiments carried out in triplicates.
For immunocytochemistry experiments, cells were seeded into 8-well chamber slides (Ibidi) at a density of 140 cells per µL in 300 µL growth medium and were allowed to grow for 48 h (NRK-52E) or 10 d (RPTEC/TERT1) respectively. For treatment, stock solutions (1,000 µM) of compounds dissolved in growth medium were freshly prepared and serial dilutions were made before exposure of cells for 24 h. After treatment, cells were washed twice with 150 µL PBS and fixed with 150 µL 4% paraformaldehyde in 1 x PBS for 10 min at room temperature. After fixation, cells were washed 10 min with 150 µL PBS on an orbital shaker followed by permeabilization with 150 µL 0.2% Triton X-100 in 1 x PBS for 5 min at room temperature on an orbital shaker. The permeabilized cells were washed twice with 1 x PBS (150 µL) for 10 min at room temperature on an orbital shaker and then incubated with 150 µL 5% BSA dissolved in 1 x PBS for 1 h at room temperature to block unspecific binding sites. After blocking, 100 µL primary antibody diluted 1:100 in 1% BSA in 1 x PBS were directly pipetted onto the cells and incubated overnight at 4°C. The following antibodies were employed for NRK-52E cells: Anti-LAMP-1 monoclonal IgG1 kappa mouse antibody (Santa Cruz; sc-20011), anti-Cathepsin D mouse monoclonal IgG2 kappa antibody (Santa Cruz; sc-377124); for RPTEC/TERT1 cells: Anti-LAMP-2 monoclonal mouse antibody (Santa Cruz; sc-18822), anti-Cathepsin D mouse monoclonal IgG2b kappa (Novus Biologicals; NBP1-04278); for both cell lines anti-megalin mouse monoclonal IgG1 antibody (Santa Cruz, sc-515772).
After incubation with primary antibody, cells were washed three times for 15 min with 0.2% Tween in 1 x PBS (150 µL) on an orbital shaker. Cells were incubated for 1 h at room temperature with 100 µL CFL 488-conjugated mouse IgG kappa binding protein (1:50) (m-IgGκ BP-CFL 488; Santa Cruz, sc-516176). After incubation the cells were washed three times for 15 min with 0.2% Tween in 1 x PBS on an orbital shaker and once with 150 µL sterile water. Phalloidin-tetramethylrhodamine B isothiocyanate (TRITC) was used to stain the cytoskeleton and was diluted in 100% methanol to a stock concentration of 0.1 mg/ml and further diluted in 1 x PBS to a working concentration of 0.095 µM. After cells were washed once with 1 x PBS for 10 min at room temperature 150 µL phalloidin-TRITC working solution was added and the cells were incubated on an orbital shaker at room temperature for 60–90 min. After incubation, phalloidin-TRITC solution was aspirated, and the cells were washed once with 1 x PBS. Chamber slides were allowed to dry for 15 min at room temperature. To preserve fluorescence 50–100 µL DAPI mounting medium (Vectashield®; Vectorlab, Biozol) was added to the cells and chamber slides were stored at 4°C in the dark until image acquisition. […]

Polymyxin B
BMC10, KE2 ([1]; in vitro POD from KE dose-response, cathepsin D intensity, RPTEC/TERT1, 24 h treatment, n = 3): 6.8 µM
MOE, KE2 ([1]; margin of exposure: BMC10 in RPTEC/TERT1 vs human plasma/serum concentration (cmax or css)): 1.7 - 11.9
Cytotoxicity compared between RPTEC/TERT1 and NRK-52E cells ([2]; 24 h treatment, cell viability): RPTEC/TERT1 cells were found to be significantly more sensitive
Rank order of effects of the 3 polymyxin derivatives across all KEs ([2]; RPTEC/TERT1 and NRK-52E, 24 h): most active
Effect on cathepsin D fluorescence intensity (KE2) ([2]; RPTEC/TERT1 and NRK-52E, 24 h, immunocytochemistry, quantitative image analysis): concentration-dependent decrease in fluorescence intensity
Effect on LAMP-1/2 expression (KE1) ([2]; RPTEC/TERT1 and NRK-52E, 24 h, immunofluorescence image analysis): significant, concentration-dependent increase in LAMP-1/2 expression
Effect on cell viability / cytotoxicity (KE3) ([2]; RPTEC/TERT1 and NRK-52E, 24 h treatment, CellTiter-Glo): concentration-dependent decrease in cell viability
